The subject of assay [1] is Tel22 (DNA, G4) AGGGTTAGGGTTAGGGTTAGGG
Description: ITC. The note with it: 20 mM KCl; 10 mM Tris, pH 7.5, 37°C; one set of equivalent sites.

Assay [2] deals with wtTel26 (DNA, G4) TTAGGGTTAGGGTTAGGGTTAGGGTT
Description: ITC. The note with it: 20 mM KCl; 10 mM Tris, pH 7.5, 25°C; one set of equivalent sites.

For assay [3], the system named is Tel26 (DNA, G4) AAAGGGTTAGGGTTAGGGTTAGGGAA
Description: ITC. The conditions noted are these: 20 mM KCl; 10 mM Tris, pH 7.5, 25°C; site 1 of 2; two sequential sites.

The test system of assay [4] is scT22 (DNA, single strand) GGATGTGAGTGTGAGTGTGAGG
Put plainly: CD titration. The conditions noted are these: 20 mM KCl; 10 mM Tris, pH 7.5, 25°C; 4 µM DNA; two bases per metal complex; per base.

Assay [5] deals with Tel22 (DNA, G4) AGGGTTAGGGTTAGGGTTAGGG
Description: CD melting at 290 nm. The conditions noted are these: 20 mM KCl; 10 mM Tris, pH 7.5; 4 µM DNA, complex at 2:1 molar ratio.

Assay [6] has as its system wtTel26 (DNA, G4) TTAGGGTTAGGGTTAGGGTTAGGGTT
Put plainly: CD melting at 290 nm. The note with it: 20 mM KCl; 10 mM Tris, pH 7.5; 4 µM DNA, complex at 2:1 molar ratio.

The test system of assay [7] is Tel26 (DNA, G4) AAAGGGTTAGGGTTAGGGTTAGGGAA
Description: CD melting at 290 nm. The conditions noted are these: 20 mM KCl; 10 mM Tris, pH 7.5; 4 µM DNA, complex at 2:1 molar ratio.

Structures are written as SMILES.

Regarding `CN(C)CCNCc1ccnc2c1ccc1cccnc12.CN(C)CCNCc1ccnc2c1ccc1cccnc12.[Ni+2]`, the Ka in assay [1] is 35.1 ± 0.6 × 10^5 M^-1; in assay [2], 4.7 ± 1.7 × 10^5 M^-1; in assay [3], 8.7 ± 3.3 × 10^5 M^-1; in assay [4], 270000 M⁻¹. Further, the ΔTm in assay [5] is 10.4 °C; in assay [6] it was 15.2 °C; in assay [7] it was 13.8 °C.

The ΔTm is the change in melting temperature against a reference sample.

The values are drawn from paper PMC3596309 (2013).
